Numbering of substitutions follows the chain as printed. Numbers in names are those of the source. Entries after “also recorded” stand apart in the source; their conditions may differ.
B1: hcGAS K187N/L195R (protein, UniProt Q8N884 1-522, looked up, variant K187N L195R)
Cyclic GMP-AMP synthase: MQPWHGKAMQRASEAGATAPKASARNARGAPMDPTESPAAPEAALPKAGKFGPARKSGSRQKKSAPDTQERPPVRATGARAKKAPQRAQDTQPSDATSAPGAEGLEPPAAREPALSRAGSCRQRGARCSTKPRPPPGPWDVPSPGLPVSAPILVRRDAAPGASKLRAVLEKLKLSRDDISTAAGMVNGVVDHLLRRLKCDSAFRGVGLLNTGSYYEHVKISAPNEFDVMFKLEVPRIQLEEYSNTRAYYFVKFKRNPKENPLSQFLEGEILSASKMLSKFRKIIKEEINDIKDTDVIMKRKRGGSPAVTLLISEKISVDITLALESKSSWPASTQEGLRIQNWLSAKVRKQLRLKPFYLVPKHAKEGNGFQEETWRLSFSHIEKEILNNHGKSKTCCENKEEKCCRKDCLKLMKYLLEQLKERFKDKKHLDKFSSYHVKTAFFHVCTQNPQDSQWDRKDLGLCFDNCVTYFLQCLRTEKLENYFIPEFNLFSSNLIDKRSKEFLTKQIEYERNNEFPVFDEF
B2: K187N (protein, listed as Homo sapiens)
chain: B1 Cyclic GMP-AMP synthase with R195L
B3: L195R (protein, listed as Homo sapiens)
chain: B1 Cyclic GMP-AMP synthase with N187K

Assays:
V. cholerae = V. cholerae chemotaxis assay (overexpressed cGAMP synthases); type: cell-based, Vibrio cholerae; conditions: overexpression as MBP N-terminal fusion, arabinose induced
Method: V. cholerae strains were cultured at 37° C. on LB media (1% tryptone, 0.5% yeast extract, 0.5% NaCl w/v), stored at −80° C. in LB supplemented with 30% glycerol, and were all derivatives of streptomycin resistant C6706 dncV: Tn (to remove endogenous 3′3′ cGAMP synthesis) (Davies et al. (2012) Cell 149:358-370). Where appropriate, antibiotics and supplemented nutrients were used at the following concentrations: streptomycin (100 μg ml^−1), carbenicillin (100 μg ml^−1), and diaminopimelic acid (300 μg ml^−1). hcGAS (D157-F522) and mcGAS (P147-L507) were codon optimized for bacterial expression (Genscript and IDT respectively), and all cGAS enzymes and control genes were overexpressed from a custom plasmid pBAD24T, a conjugation-proficient version of pBAD24 that harbors an arabinose inducible promoter and a strong ribosomal binding site (Guzman et al. (1995) J Bacteriol 177:4121-4130) that was further modified to include a new multiple cloning site. All genes overexpressed in V. cholera were encoded as MBP N-terminal fusions except the MBP alone negative control vector (Table 5).
[…]. V. cholerae chemotaxis assays were performed as previously described (Davies et al. (2012) Cell 149:358-370). Briefly, chemotaxis medium (1% tryptone, 0.5% NaCl, 0.3% agar w/v) was prepared, autoclaved, and stored at 2x concentration; and chemotaxis plates were prepared 2-24 h prior to inoculation. 2x medium was melted, diluted to 1× with sterile water, and supplemented with 0.2% (w/v) arabinose. Deep-well plates (OmniTray w/Lid, Thermo Fisher) were poured at 40 ml/plate. Overnight, stationary phase cultures (16-24 h post inoculation) were diluted 10-fold with fresh LB, arrayed in a 96-well plate, then applied to the surface of a chemotaxis plate via pinning with a 96-pin, floating pin replicator (VP 408FH, V&P Scientific). Alternatively, 1 μl of diluted culture was applied to the surface of chemotaxis agar by pipetting. Chemotaxis plates were incubated at 30° C. for 16-24 h.
Chemotaxis was quantified by imaging plates at 16-24 h post inoculation and digitally measuring the area of motile bacteria using ImageJ (Schneider et al. (2012) Nat Methods 9:671-675). Chemotaxis area was normalized to MBP alone vector for each experiment for expression of “chemotaxis as a % of MBP”. Values were transformed into “chemotaxis repression” by calculating (chemotaxis as a % of MBP)-1, then normalizing this value to dncV. Chemotaxis repression was determined and used to simplify a direct relationship between cGAMP levels and plotted values.

[1] = test system: 45 bp double-stranded interferon stimulatory DNA; assay: In vitro cGAS 2′3′ cGAMP synthesis assay; type: biochemical; conditions: for 2′3′ cGAMP synthesis: 45 bp DNA
Method: […]. Briefly, 1 μM cGAS (or other concentration as indicated) was incubated with a 45 bp double-stranded interferon stimulatory DNA (sense: 5′-[…]-3′, SEQ ID NO: 6; antisense: 5′-[…]-3′, SEQ ID NO: 7) (Stetson and Medzhitov (2006) Immunity 24:93-103) in the 20 μl reaction buffer containing 50 mM Tris-HCl pH 7.5, 35 mM KCl, 5 mM Mg(OAc)2, 1 mM DTT, 25 μM ATP, 25 μM GTP, and [α-^32P] ATP (˜1 μCi) at 37° C. for 30 min. Reactions were terminated by heating at 95° C. for 3 min, and subsequently incubated with 4 U of alkaline phosphatase (New England Biolabs) at 37° C. for 30 min to hydrolyze unreacted NTPs. One microliter of each reaction was spotted on a PEI-Cellulose F thin-layer chromatography plate (EMD Biosciences) developed with 1.5 M KH2PO4 (pH 3.8) as a running buffer. Radiolabeled products were detected by Typhoon Trio Variable Mode Imager system (GE Healthcare) and quantified with ImageQuant 5.2. […]. Briefly, ATP/GTP titrations (0, 5, 10, 25, 50, 100, 200, 400, 800, and 1000 μM) were performed in the presence of fixed cGAS (1 μM) and 45 bp dsDNA concentration (1.5 μM) in 10 μl of reaction buffer containing 50 mM Tris-HCl pH 7.5, 35 mM KCl, 5 mM Mg(OAc)2, 1 mM DTT, and [α-^32P] ATP (˜1 μCi) at 37° C. for 5 min. Reactions were terminated and analyzed using thin layer chromatography as indicated above. The ATP-dependent cGAS enzyme kinetics were plotted and fitted according to Michaelis-Menten substrate inhibition analysis in GraphPad Prism (version 7.0c).

17 bp DNA = assay: In vitro cGAS 2′3′ cGAMP synthesis assay, DNA length specificity; type: biochemical
Method: […]. Briefly, 1 μM cGAS ([…], SEQ ID NO: 6; antisense: 5′-[…]-3′, SEQ ID NO: 7) (Stetson and Medzhitov (2006) Immunity 24:93-103) in the 20 μl reaction buffer containing 50 mM Tris-HCl pH 7.5, 35 mM KCl, 5 mM Mg(OAc)2, 1 mM DTT, 25 μM ATP, 25 μM GTP, and [α-^32P] ATP (˜1 μCi) at 37° C. for 30 min. Reactions were terminated by heating at 95° C. for 3 min, and subsequently incubated with 4 U of alkaline phosphatase (New England Biolabs) at 37° C. for 30 min to hydrolyze unreacted NTPs. One microliter of each reaction was spotted on a PEI-Cellulose F thin-layer chromatography plate (EMD Biosciences) developed with 1.5 M KH2PO4 (pH 3.8) as a running buffer. Radiolabeled products were detected by Typhoon Trio Variable Mode Imager system (GE Healthcare) and quantified with ImageQuant 5.2. […]. Briefly, ATP/GTP titrations (0, 5, 10, 25, 50, 100, 200, 400, 800, and 1000 μM) were performed in the presence of fixed cGAS (1 μM) and 45 bp dsDNA concentration (1.5 μM) in 10 μl of reaction buffer containing 50 mM Tris-HCl pH 7.5, 35 mM KCl, 5 mM Mg(OAc)2, 1 mM DTT, and [α-^32P] ATP (˜1 μCi) at 37° C. for 5 min. Reactions were terminated and analyzed using thin layer chromatography as indicated above. The ATP-dependent cGAS enzyme kinetics were plotted and fitted according to Michaelis-Menten substrate inhibition analysis in GraphPad Prism (version 7.0c).

45 bp dsDNA = assay: In vitro cGAS-DNA complex formation, electrophoretic mobility shift analysis; type: binding; conditions: 45 bp DNA, gradient dialysis
Method: cGAS-DNA complexes were stably assembled using a method adapted from a nucleosome assembly gradient dialysis protocol (Lee and Narlikar (2001) Current protocols in molecular biology Chapter 21, Unit 21.26), and complex formation was measured by electrophoretic mobility shift analysis. Briefly, a concentration gradient of recombinant protein (0.2, 0.4, 2, 10 μM) was incubated with 45 bp dsDNA (2 μM) in a high-salt buffer containing 20 mM HEPES-NaOH pH 7.8, […], 1 mM DTT at 4° C. for 20 min. The reconstitution mixture was then transferred into 8-10 kDa molecular weight cut-off dialysis tubing (Spectrum Labs), and placed into a beaker of the high-salt buffer. The KCl concentration was reduced gradually by slowly replacing high-salt buffer with low-salt buffer (20 mM HEPES-KOH pH 7.5, 50 mM KCl, 1 mM DTT) with a peristaltic pump (Bio-Rad) at a rate of […] for 48 hr at 4° C. After gradient dialysis, reactions were supplemented to 5% glycerol, and subsequently separated on a 2% agarose gel in 0.5×TBE buffer at 4° C. Agarose gels were stained in a solution containing 10 μg ml^−1 ethidium bromide and visualized with a ChemiDoc™ MP Imaging System (Bio-Rad). Alternatively, where indicated in FIGS. 8A and 8C, cGAS-DNA complexes were assembled by incubating directly in reaction buffer containing 20 mM HEPES-NaOH pH 7.8, […], 1 mM DTT at 4° C. for 20 min and analyzed by electrophoretic mobility shift analysis as indicated above.

V. cholerae genomic DNA = assay: In vitro cGAS 2′3′ cGAMP synthesis assay with bacterial genomic DNA; type: biochemical, Vibrio cholerae; conditions: purified V. cholerae genomic DNA

Row | Molecule | V. cholerae chemotaxis repression (V. cholerae) | 2′3′ cGAMP synthesis / enzyme activation in response to short DNA (17 bp DNA) | higher-order cGAS-DNA complex formation (45 bp dsDNA) | lower molecular weight minimal cGAS-DNA complex formation (45 bp dsDNA) | further results
1 | dncV | inhibited chemotaxis |  |  |  | 
2 | hcGAS | no loss of chemotaxis | remained inactive | preferentially formed higher-order oligomeric complexes |  | enhanced 2′3′ cGAMP synthesis versus wild type hcGAS [1]: > 15 fold; 2′3′ cGAMP synthesis ([1]; listed as hcGAS*): activity comparable to wildtype mcGAS; catalytic efficiency of 2′3′ cGAMP synthesis, fold less efficient than mcGAS ([1]; varying ATP concentration, Michaelis-Menten with substrate inhibition): ~20 fold
3 | mcGAS | potently arrested chemotaxis | recognized both 45 bp and 17 bp DNA with near equal efficiency |  | formed two types of DNA complexes | 2′3′ cGAMP synthesis in response to bacterial genomic DNA (V. cholerae genomic DNA): produces more 2′3′ cGAMP than hcGAS
4 | B1 | potently inhibited V. cholerae chemotaxis | full enzyme activation | unaffected | restored the ability of hcGAS to form a stable lower molecular weight protein-DNA complex | 2′3′ cGAMP synthesis [1]: elevated 2′3′ cGAMP synthesis; also recorded: dramatically enhanced 2′3′ cGAMP synthesis; enzyme kinetics of 2′3′ cGAMP synthesis ([1]; varying ATP concentration, compared to mcGAS): nearly equal to mcGAS
5 | B2 | Neither K187N nor L195R alone was sufficient to enhance hcGAS activity |  |  |  | 
6 | B3 | Neither K187N nor L195R alone was sufficient to enhance hcGAS activity |  |  |  | 

Source: patent US12146168B2, “Human CGAS-DNA complex and encoded protein” (priority 2018, dated 2024)
